Patent US20210145768A1, “MODULATING IMMUNE RESPONSE VIA TARGETING OF OLFACTORY RECEPTOR ACTIVITY” (La Jolla Institute for Allergy and Immunology, priority 2018, published 2021)
“Also recorded” adds a separate entry of the source.

Experiments:
Olfr2 [1] = biological target: T1, Olfr2 (Mus musculus, UniProt Q9QWU6); assay: Inflammatory gene expression (real time PCR) in explanted whole aortas treated with octanal, citral, LPS; type: cell-based; design: Olfr2 expression was confirmed at the protein level on F4/80^+ vascular macrophages; from tissue; host or cells: explanted whole aortas, digested aortic cell suspensions (F4/80+ vascular macrophages) and blood monocytes of Apoe-/- C57BL/6J mice; living Apoe-/- mice for the in vivo study; settings: for mRNA expression of Ccl2, Ccl4, Tnf and Nos2 (iNOS): explanted whole aortas of Apoe−/− mice on WD 2 weeks, octanal 10 μM alone, normalized to Gapdh and untreated control; for octanal-induced increase in CCL2, CCL4, TNF and iNOS (Nos2) expression: citral 100 μM with octanal 10 μM, in presence and absence of LPS
T1 sequence (Q9QWU6 1-327): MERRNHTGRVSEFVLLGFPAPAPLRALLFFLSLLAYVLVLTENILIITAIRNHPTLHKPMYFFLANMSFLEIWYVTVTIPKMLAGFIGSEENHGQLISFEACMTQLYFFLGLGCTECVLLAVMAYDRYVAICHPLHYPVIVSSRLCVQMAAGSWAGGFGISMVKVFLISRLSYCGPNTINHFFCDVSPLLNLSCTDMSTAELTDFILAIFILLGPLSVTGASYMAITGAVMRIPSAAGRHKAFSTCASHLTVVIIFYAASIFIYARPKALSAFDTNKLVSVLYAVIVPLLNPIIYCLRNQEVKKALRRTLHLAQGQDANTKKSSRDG
Procedure: Gene expression analysis was performed by harvesting whole aortas from apoE^−/− mice kept on western diet (WD) for 2 weeks and treating for 12h with DMSO (Ctrl), citral (Cit, 100 μM), octanal (Oct, 10 μM in DMSO) or lipopolysaccharide (lps, 0.5 μg/mL in DMSO) alone or in combination. After the incubation, aortas were transferred in Trizol reagent (1 ml) and digested with gentleMACS™ Dissociator (Millteny). Total RNA was then purified with RNAse Micro kit (Qiagen) and reverse transcribed using the Omniscript reverse transcriptase kit (Qiagen). Real-time PCR reaction was performed following the RT^2 Sybr green gene expression assay protocol (Qiagen). RT2 SYBR Green qPCR mastermix mix and premade RT^2 qPCR Primer Assay for mouse GAPDH, CCL2, CCL4, TNF, and iNOS were used. Data were normalized to the expression levels of the housekeeping gene GAPDH.
To test physiologic effects of Olfr2 activation in situ, explanted whole aortas of mice (n=5 per group) were treated with octanal with or without LPS. Briefly, whole aortas were left untreated or incubated with the Olfr2 agonist octanal (Oct, 10 μM), LPS, (500 ng/mL), or with both for 12 h. Quantitative Real time PCR reaction was performed to detect Ccl2, Ccl4, Tnf, and Nos2 gene expression. Relative expression was normalized to Gapdh expression and the untreated control. […] TNF secretion by vascular macrophages (F4/80+) was confirmed by intracellular staining using flow cytometry (FIG. 7F).
Apoe^−/− mice were fed WD for 2 weeks before sacrifice for aorta explant culture. Whole aortas were incubated in culture medium with DMSO (0.1% as a vehicle), octanal (Oct, 10 μM), LPS (500 ng/mL) alone or octanal and LPS combined (LPS+Oct) for 12 h at 37° C. and 5% CO2. Subsequently, aortas were collected and further processed as below discussed for RNA extraction, and flow cytometry analysis. Culture supernatants were collected, aliquoted, and frozen at −80° C. until further analysis.
BMDMs and hMDMs were incubated in culture media for 12 h at 37° C. and 5% CO2 with Oct, (10 μM), LPS (500 ng/mL) alone or combined with Oct (LPS+Oct) and DMSO (0.1%) as a control and lysed with Qiazol (500 μL; Qiagen) Similarly, whole aortas incubated as previously described were transferred into Qiazol (500 μl; Qiagen) and digested with gentleMACS™ Dissociator (Miltenyi).
RNA extraction was performed using a Qiazol/RNAeasy micro kit hybrid protocol (Qiagen).
Total RNA was quantified using a nanodrop spectrophotometer (Peqlab) and 500 ng were reverse transcribed into cDNA using Omniscript reverse transcriptase (Qiagen). Real time PCR reactions were performed according to the RT^2 SYBR green gene expression assay protocol (Qiagen). RT2 SYBR Green qPCR master mix and premade RT^2 qPCR Primer Assays for mouse Olfr2, Rtp1, Rtp2, Ccl2, Ccl4, Tnf, Nos2 and Gapdh were used. Similarly, real time PCR analysis of hMDMs samples was performed following the RT^2 SYBR green gene expression assay protocol (Qiagen), applying RT^2 SYBR Green qPCR master mix and premade RT^2 qPCR Primer Assays for human OR6A2, TNF, IL-6, NOS2 and GAPDH. The results were calculated applying the 2^−ΔΔCT method^32 using Gapdh/GAPDH as housekeeping gene.

Olfr2 [2] = biological target: T1, Olfr2; assay: IL-1β production in LPS-primed mouse BMDMs; type: cell-based; design: Olfr2 expression was confirmed at the protein level on F4/80^+ vascular macrophages; from tissue; host or cells: explanted whole aortas, digested aortic cell suspensions (F4/80+ vascular macrophages) and blood monocytes of Apoe-/- C57BL/6J mice; living Apoe-/- mice for the in vivo study
Procedure: Macrophages are known producers of one of the most prominent cytokines driving atherosclerosis, IL-1β^29. IL-1β production and secretion requires assembly of the inflammasome, a cytoplasmic complex containing several proteins that serves as a molecular platform for activation of the cysteine protease caspase^30,31. To test whether octanal induced IL-1β secretion in macrophages, BMDMs were primed with low-dose LPS (50 ng/mL) for 18 h followed by exposure to octanal alone or together with citral. IL-1β protein in the supernatant was quantified by a cytokine bead array. Data are presented as mean±SEM. *p<0.05, **p<0.01, ***p<0.005, ****p<0.001. p calculated by One-Way ANOVA test, Tukey's multiple comparisons test and unpaired t-test.
Mouse BMDMs and human MDMs were pretreated with LPS (50 ng/mL) or left untreated for 18 h at 37° C. and 5% CO2. […]
Supernatants of stimulated cells and aortic tissue were analyzed by BD CBA Flex Sets (BD Biosciences) for mouse TNFα, CCL2, CCL4, IL-1β, or human TNF, IL6, and IL-1β according to the manufacturer's protocol. Samples were analyzed with LSR-II (BD Biosciences). Data was acquired with FACSDiva software (BD Biosciences) and analyzed with FCAP array software 3.0 (BD Biosciences).

| SMILES | LPS-induced expression of inflammatory molecules (Ccl2, Ccl4, Tnf, Nos2) (Olfr2 [1]; explanted aortas, octanal 10 μM + LPS 500 ng/mL, 12 h) | mRNA expression of Ccl2, Ccl4, Tnf and Nos2 (iNOS) (Olfr2 [1]; 12 h) | mRNA expression of Ccl2, Ccl4, Tnf and Nos2 (iNOS) (Olfr2 [1]; 12 h, listed as Oct) | LPS induction of CCL2 (MCP-1) and CCL4 (Olfr2 [1]; qRT-PCR, octanal + LPS) | iNOS expression induced by LPS (Olfr2 [1]; qRT-PCR, octanal + LPS) | TNF expression (Olfr2 [1]; qRT-PCR, octanal + LPS, Olfr2 ligation required to reveal LPS-induced increase) | CCL2 and CCL4 expression (Olfr2 [1]; qRT-PCR, octanal alone (without LPS)) | release of IL-1β into the supernatant, mouse BMDMs (Olfr2 [2]; LPS 50 ng/mL 18 h priming, then octanal 10 μM) | octanal-induced increase in CCL2, CCL4, TNF and iNOS (Nos2) expression (Olfr2 [1]; explanted aortas, 12 h) | octanal-induced increase in CCL2, CCL4, TNF and iNOS (Nos2) expression (Olfr2 [1]; explanted aortas, 12 h, listed as Cit) | octanal-induced IL-1β release, mouse BMDMs (Olfr2 [2]; LPS priming, octanal 10 μM + citral 100 μM) |
| --- | --- | --- | --- | --- | --- | --- | --- | --- | --- | --- | --- |
| CCCCCCCC=O [octanal] | exacerbate the inflammatory response; also recorded: significantly enhances; also recorded: enhanced the LPS-induced expression | induces expression of inflammatory mediators; also recorded: induced mRNA expression | induces pro-inflammatory gene expression | significantly enhanced | greatly enhanced | greatest effect | measurable increase | strongly increased | – | – | – |
| CC(C)=CCCC(C)=CC=O [citral] | – | – | – | – | – | – | – | – | completely blocked; also recorded: effective at curbing inflammatory mediator expression | reduced | inhibited |
